Measured values reported in patent publication US20090280160A1, “PHENYLEPHRINE PHARMACEUTICAL FORMULATIONS AND COMPOSITIONS FOR TRANSMUCOSAL ABSORPTION” (Schering-Plough Healthcare Products, Inc., priority 2007, published 2009).
Entries after “also recorded” stand apart in the source; their conditions may differ.

Columns and labels:
[1] = molecular target: T1, α1b adrenoreceptor (Homo sapiens, UniProt P35368); assay: Competition binding, [3H]-prazosin, α1b CHO cell membranes
T1 construct: expressed in transfected cells
T1 sequence (P35368 1-520): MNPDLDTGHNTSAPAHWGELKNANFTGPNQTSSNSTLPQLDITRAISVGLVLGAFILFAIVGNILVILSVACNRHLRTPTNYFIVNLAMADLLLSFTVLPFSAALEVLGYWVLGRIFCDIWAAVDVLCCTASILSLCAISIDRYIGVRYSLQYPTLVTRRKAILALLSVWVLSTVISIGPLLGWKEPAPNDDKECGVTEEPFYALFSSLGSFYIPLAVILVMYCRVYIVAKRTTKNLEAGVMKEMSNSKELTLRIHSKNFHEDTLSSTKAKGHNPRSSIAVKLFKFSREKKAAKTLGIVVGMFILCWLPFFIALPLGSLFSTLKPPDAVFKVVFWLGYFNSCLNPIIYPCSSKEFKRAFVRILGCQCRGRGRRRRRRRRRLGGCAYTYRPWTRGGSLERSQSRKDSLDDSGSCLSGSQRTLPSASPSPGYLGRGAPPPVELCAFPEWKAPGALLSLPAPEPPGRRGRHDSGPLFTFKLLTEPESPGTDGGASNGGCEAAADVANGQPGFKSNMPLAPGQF
Method: (§1) The affinity and activity of phenylephrine metabolites were evaluated in human recombinant α1 and α2 adrenoreceptor binding and activity assays. […] Affinity of the metabolites was determined by receptor binding assays. Functional activity of the metabolites was assessed using an [^35S]-GTPγS binding exchange assay for the α2 receptor subtypes and a cell-based calcium flux response for the α1 receptor subtypes.
(§2) Competition Binding Assays
(§3) Competition binding assays for the α2 adrenoreceptors were performed using 20 μg membrane protein per well in binding buffer (75 mM Tris-HCl pH 7.4, 12.5 mM MgCl2, […] EDTA, 0.2% bovine serum albumin). […] Binding was terminated by rapid filtration through GF/C unifilter plates, presoaked with 0.3% polyethylenimine, with five washes with 0.5 ml cold 50 mM Tris-HCl ph 7.4, using a Packard Filtermate Harvester. After drying, bound radioactivity was determined by liquid scintillation counting (Packard TopCount) with Microscint 20, 50 μl/well. Binding data were analyzed using GraphPad Prism.
(§4) Each metabolite was evaluated in each assay in at least 2 independent experiments and a representative assay of each metabolite/assay combination is shown.

[2] = molecular target: T2, α2a adrenoreceptor (Homo sapiens, UniProt P08913); assay: [35S]-GTPγS binding exchange, α2a CHO cell membranes; type: biochemical; conditions: for stimulation of [35S]-GTPγS binding, α2a (in words): CHO cell membranes
T2 construct: expressed in transfected cells; host or cells: CHO (Chinese hamster ovary) cells, membranes
T2 sequence (P08913 1-465): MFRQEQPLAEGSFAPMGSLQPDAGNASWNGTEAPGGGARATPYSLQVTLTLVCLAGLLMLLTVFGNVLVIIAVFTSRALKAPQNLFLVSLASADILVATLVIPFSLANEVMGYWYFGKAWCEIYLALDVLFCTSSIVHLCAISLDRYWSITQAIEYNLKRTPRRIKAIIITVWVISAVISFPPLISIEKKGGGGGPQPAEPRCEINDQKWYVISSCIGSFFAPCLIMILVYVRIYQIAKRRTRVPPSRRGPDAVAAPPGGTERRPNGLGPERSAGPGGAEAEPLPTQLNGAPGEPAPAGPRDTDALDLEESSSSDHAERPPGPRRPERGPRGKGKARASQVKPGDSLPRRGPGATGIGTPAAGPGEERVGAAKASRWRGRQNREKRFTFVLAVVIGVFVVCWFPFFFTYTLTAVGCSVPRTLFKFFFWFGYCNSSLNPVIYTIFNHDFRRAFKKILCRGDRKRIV
Method: as §1
Plates were counted on a Packard TopCount. The percent increase over basal binding of [^35S]-GTPγS, a measure of efficacy, was calculated as follows: 100×[[mean total sample cpm−basal cpm]÷by basal cpm]. Basal cpm was defined as the mean cpm in the absence of agonist compound minus the mean non-specific binding cpm.
as §4

[3] = oral, approximately 24 mg of PE, healthy volunteers; cited from earlier work
[4] = molecular target: T2, α2a adrenoreceptor; assay: Competition binding, [3H]-UK14304, α2a CHO cell membranes; conditions: for inhibition of [3H]-UK14304 binding, α2a (in words): CHO cell membranes
Method: as §1, §2, §3, §4

[5] = molecular target: T3, α1a adrenoreceptor (Homo sapiens, UniProt P35348); assay: Cellular calcium flux (FLIPR), α1a expressing CHO cells; type: cell-based; conditions: for increase in intracellular calcium, α1a calcium assay (in words): α1a expressing CHO cells
T3 construct: expressed in transfected cells
T3 sequence (P35348 1-466): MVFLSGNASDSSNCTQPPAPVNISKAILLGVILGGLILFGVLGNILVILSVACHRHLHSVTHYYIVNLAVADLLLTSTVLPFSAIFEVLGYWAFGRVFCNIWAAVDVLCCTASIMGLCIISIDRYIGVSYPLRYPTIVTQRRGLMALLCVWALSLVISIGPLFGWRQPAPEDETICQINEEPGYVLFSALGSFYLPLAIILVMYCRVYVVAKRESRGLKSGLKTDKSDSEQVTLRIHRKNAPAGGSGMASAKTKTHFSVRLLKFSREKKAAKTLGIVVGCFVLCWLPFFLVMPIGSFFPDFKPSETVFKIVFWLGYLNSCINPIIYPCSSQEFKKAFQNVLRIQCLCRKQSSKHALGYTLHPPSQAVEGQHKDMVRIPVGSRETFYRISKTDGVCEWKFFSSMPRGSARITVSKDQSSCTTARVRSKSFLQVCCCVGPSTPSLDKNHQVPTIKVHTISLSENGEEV
Method: as §1
Intracellular calcium levels were measured using a fluorometric imaging plate reader (FLIPR). Cells expressing α1 adrenoreceptors were cultured overnight at 15,000 cells/well in 96 well black-wall clear bottom plates (Packard). Adherent cells were loaded for 1 hour at 37° C. using the FLIPR Calcium Plus Assay Kit (Molecular Probes, Eugene, Oreg.), which included 2.5 mM probenecid (Sigma). Compounds (at 10 mM in 100% DMSO) were diluted in diluting buffer (HBSS, 20 mM HEPES, 2.5 mM probenecid, 0.5% BSA, pH 7.4). A titration of norepinephrine was included in every experiment and norepinephrine (at 1 μM) was also used as a plate standard on each assay plate. Cells were maintained at 37° C. throughout all calcium measurements. Fluorescence data was collected at 1 second interval for 60 seconds, followed by collection at 2 second intervals for 30 seconds. Background fluorescence was quantitated in wells containing cells with no additions and was subtracted from all experimental samples. All conditions were done in quadruplicate. Non-linear regression analysis using GraphPad Prism was used to calculate EC50 values.
as §4

[6] = highest concentration evaluated (10 μM)
[7] = listed as PE glucuronide batch 4

Ki ([1]; [3H]-prazosin, read-out: Ki, a1b Binding (class symbol)) [µM]	agonist activity, α2a [35S]-GTPγS assay (in words) [2, 6]	EC50 ([2]; read-out: EC50, a2a GTPγS (class symbol)) [µM]	Ki ([4]; [3H]-UK14304, read-out: Ki, a2a Binding (class symbol)) [µM]	binding / affinity, α2a receptor (in words) ([4]; at 100 μM (highest concentration evaluated))	agonist activity, α1a calcium assay (in words) [5, 6]	EC50 ([5]; α1a-expressing CHO cells, read-out: EC50, a1a Calcium (class symbol)) [µM]	Compound	binding / affinity, α1b receptor (in words) ([1]; concentrations up to 100 μM)	stimulation of [35S]-GTPγS binding, α2a (in words) [2]	metabolite excreted in the urine [3]	inhibition of [3H]-UK14304 binding, α2a (in words) [4]	increase in intracellular calcium, α1a calcium assay (in words) [5]	inhibition of 3H-prazosin binding, α1b (in words) ([1]; CHO cell membranes)	activity in α2a [35S]-GTPγS assay (in words) ([2]; highest concentration, 100 μM)	inhibition of [3H]-UK14304 binding, α2a (in words) ([4]; listed as PE glucuronide b4)	inhibition of [3H]-UK14304 binding, α2a (in words) [4, 7]	fold less potent than PE in inducing a calcium increase, α1a cells ([5]; batch b4, approximately 0.28% PE)	increase in intracellular calcium, α1a calcium assay (in words) [5, 7]
> 100	no activity	> 10	> 100	no affinity	no activity	> 10	O=C(O)C(O)c1cccc(O)c1 (stereo not shown) [3-hydroxymandelic acid]	No appreciable binding; also recorded: no affinity	no activity	30 % of dose	no significant binding	not active	–	–	–	–	–	–
–	–	–	–	–	–	–	CNC[C@H](O)c1cccc(O[C@@H]2O[C@H](C(=O)O)[C@@H](O)[C@H](O)[C@H]2O)c1 [PE glucuronide, (R)-PE glucuronide]	–	nor did it activate binding; also recorded: pharmacologically inactive	12 % of dose	weakly inhibits binding; also recorded: pharmacologically inactive	consistent with level of contaminating phenylephrine; also recorded: pharmacologically inactive	No appreciable binding; also recorded: no binding affinity; also recorded: pharmacologically inactive	very weak binding	A small amount of binding	minimal activity	300-450 fold	minimal activity
